Values quoted from earlier work in US20100227801A1, “PHARMACEUTICAL COMPOSITIONS” (Scynexis, Inc., priority 2009, published 2010).

Experiments:
HCV = details: phase Ib clinical trial
HCV subgenomic replicon = details: subgenomic replicon system
HCV full length replicon = details: full length replicon system

| SMILES | activity against HCV infected patients (HCV) | inhibition of HCV-specific RNA replication (HCV subgenomic replicon) | inhibition of HCV-specific RNA replication (HCV full length replicon) |
| --- | --- | --- | --- |
| CC(C)OC(=O)[C@H](C)NP(=O)(OC[C@H]1O[C@@H](n2ccc(=O)[nH]c2=O)[C@](C)(F)[C@@H]1O)Oc1ccccc1 (stereo partly drawn) [PSI-7851] | demonstrated activity | – | – |
| C/C=C/C[C@@H](C)[C@@H](O)[C@H]1C(=O)N[C@@H](CC)C(=O)N(C)[C@H](SCCN(C)C)C(=O)N(C)[C@@H](CC(C)(C)O)C(=O)N[C@@H](C(C)C)C(=O)N(C)[C@@H](CC(C)C)C(=O)N[C@@H](C)C(=O)N[C@H](C)C(=O)N(C)[C@@H](CC(C)C)C(=O)N(C)[C@@H](CC(C)C)C(=O)N(C)[C@@H](C(C)C)C(=O)N1C [SCY-635, 3-[(R)-2-(N,N-dimethylamino)ethylthio-Sar]-4-(gammahydroxymethylleucine)cyclosporine] | – | potent and selective inhibition | potent and selective inhibition |
